Data taken from patent publication US8003649B2 (AstraZeneca AB, priority 2007, dated 2011).

Target: T1, Androgen Receptor (AR) (Homo sapiens, UniProt P10275, T878A)
T1 construct: cell based immuno-fluorescence assay using the LNCaP prostate epithelial cell line; endogenous in cells; host or cells: LNCaP clone FGC (ATCC CRL-1740)
T1 sequence (P10275 1-920 T878A): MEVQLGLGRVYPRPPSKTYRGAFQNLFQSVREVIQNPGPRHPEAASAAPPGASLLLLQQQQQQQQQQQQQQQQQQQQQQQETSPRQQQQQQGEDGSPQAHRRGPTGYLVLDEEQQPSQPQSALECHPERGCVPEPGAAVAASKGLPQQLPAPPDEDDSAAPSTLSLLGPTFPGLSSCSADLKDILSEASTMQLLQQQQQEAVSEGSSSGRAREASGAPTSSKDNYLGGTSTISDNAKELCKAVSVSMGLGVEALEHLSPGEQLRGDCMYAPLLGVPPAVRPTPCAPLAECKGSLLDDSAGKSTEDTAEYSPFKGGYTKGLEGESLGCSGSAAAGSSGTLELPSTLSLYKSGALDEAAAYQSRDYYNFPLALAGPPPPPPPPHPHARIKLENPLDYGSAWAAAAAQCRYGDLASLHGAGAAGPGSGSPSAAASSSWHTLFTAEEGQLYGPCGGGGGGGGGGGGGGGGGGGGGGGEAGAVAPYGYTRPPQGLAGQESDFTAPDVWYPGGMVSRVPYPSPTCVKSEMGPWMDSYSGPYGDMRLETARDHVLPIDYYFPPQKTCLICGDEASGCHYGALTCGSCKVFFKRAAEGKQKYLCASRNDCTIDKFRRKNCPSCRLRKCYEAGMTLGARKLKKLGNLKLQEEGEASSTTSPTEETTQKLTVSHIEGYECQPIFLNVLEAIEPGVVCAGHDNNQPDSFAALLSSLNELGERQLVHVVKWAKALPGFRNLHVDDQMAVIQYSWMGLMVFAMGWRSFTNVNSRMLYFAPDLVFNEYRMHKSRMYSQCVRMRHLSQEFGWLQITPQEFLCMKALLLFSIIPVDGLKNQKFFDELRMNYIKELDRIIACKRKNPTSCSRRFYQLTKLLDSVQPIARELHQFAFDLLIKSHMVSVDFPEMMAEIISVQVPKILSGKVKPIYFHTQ
Assay: LNCaP Androgen Receptor Down-regulation Cell Assay (immunofluorescence end point)
Format: cell-based
Settings: LNCaP prostate carcinoma cells, compound incubation 20-22 hours, 50% reduction of the AR signal; read-out: Androgen Receptor Down-regulation Assay (a) IC50/μM
In short: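 LNCaP cells in medium with 5% charcoal-stripped FBS were plated overnight, then treated with a compound dilution series for 20-22 h at 37° C. After fixation, permeabilisation and immunostaining, AR-associated green fluorescence was quantified by laser-scanning microplate cytometry; AR down-regulation expressed as IC50 from fitted dose-response curves.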

Row | Structure (SMILES) | DC50
1 | CN1CCN(CCOc2ccc(C3CCN(c4ccc5nnc(C(F)(F)F)n5n4)CC3)cc2)CC1 [Example 735] | 1.9 µM
2 | COc1cccc(C(=O)N2CC3CN(c4ccc5nnc(C(F)(F)F)n5n4)CC3C2)c1 (stereo not drawn) [Example 207, (3-methoxyphenyl)-[2-[3-(trifluoromethyl)-[1,2,4]triazolo[4,3-b]pyridazin-6-yl]-1,3,3a,4,6,6a-hexahydropyrrolo[3,4-c]pyrrol-5-yl]methanone] | 7.6 µM
3 | O=C(CN1CCCC1)Nc1ccc(C2CCN(c3ccc4nnc(C(F)(F)F)n4n3)CC2)cc1 [Example 709] | 1.7 µM
4 | FC(F)(F)c1cccc(CN2CC3CN(c4ccc5nnc(C(F)(F)F)n5n4)CC3C2)c1 (stereo not drawn) [Example 196, 3-(trifluoromethyl)-6-[2-[[3-(trifluoromethyl)phenyl]methyl]-1,3,3a,4,6,6a-hexahydropyrrolo[3,4-c]pyrrol-5-yl]-[1,2,4]triazolo[4,3-b]pyridazine] | 1.5 µM
5 | N#CCOc1ccc(CN2CCN(c3ccc4nnc(C(F)(F)F)n4n3)CC2)cc1 [Example 154, 2-[4-[[4-[3-(trifluoromethyl)-[1,2,4]triazolo[4,3-b]pyridazin-6-yl]piperazin-1-yl]methyl]phenoxy]acetonitrile] | 1.6 µM
6 | C[C@H]1CN(Cc2ccc(F)c(F)c2)CCN1c1ccc2nnc(C(F)(F)F)n2n1 [Example 595] | 6.8 µM
7 | FC(F)(F)c1nnc2ccc(N3CCC(c4ccc(OCc5ccon5)cc4)CC3)nn12 [Example 733] | 0.6 µM
8 | FC(F)(F)c1nnc2ccc(N3CCN(Cc4cccnc4Br)CC3)nn12 [Example 376] | 3 µM
9 | FC(F)(F)c1nnc2ccc(N3CC[C@@H](Oc4ccccn4)C3)nn12 [Example 578, 6-[(3R)-3-(pyridin-2-yloxy)pyrrolidin-1-yl]-3-(trifluoromethyl)[1,2,4]triazolo[4,3-b]pyridazine] | 2.5 µM
10 | C[C@H](c1ccc(F)cc1)N1CCN(c2ccc3nnc(C(F)F)n3n2)CC1 [Example 269, 3-(difluoromethyl)-6-[4-[(1R)-1-(4-fluorophenyl)ethyl]piperazin-1-yl][1,2,4]triazolo[4,3-b]pyridazine] | 2 µM
11 | Cc1cc2nnc(C(F)(F)F)n2nc1N1CCN(Cc2ccc(C#N)cc2)CC1 [Example 13, 4-((4-(7-Methyl-3-(trifluoromethyl)-[1,2,4]triazolo[4,3-b]pyridazin-6-yl)piperazin-1-yl)methyl)benzonitrile] | 8.4 µM
12 | FC(F)c1nnc2ccc(N3CCCN(Cc4ccccc4)CC3)nn12 [Example 6, 6-(4-benzyl-1,4-diazepan-1-yl)-3-(difluoromethyl)-[1,2,4]triazolo[4,3-b]pyridazine] | 7.5 µM
13 | FC(F)(F)c1nnc2ccc(N3CCN(CCc4cccc(Cl)c4)CC3)nn12 [Example 233] | 1.5 µM
14 | C[C@@H]1CN(Cc2ccccc2)[C@@H](C)CN1c1ccc2nnc(C(F)(F)F)n2n1 [Example 216, 6-[(2R,5S)-4-benzyl-2,5-dimethylpiperazin-1-yl]-3-(trifluoromethyl)[1,2,4]triazolo[4,3-b]pyridazine] | 6.8 µM
15 | FC(F)(F)c1nnc2ccc(N3CCN(C(c4ccccc4)c4ccccc4)CC3)nn12 [Example 22, 6-(4-benzhydrylpiperazin-1-yl)-3-(trifluoromethyl)-[1,2,4]triazolo[4,3-b]pyridazine] | 1.4 µM
16 | FC(F)(F)c1nnc2ccc(N3CCN(Cc4ccc(N5CCOCC5)cc4)CC3)nn12 [Example 160, 6-[4-[(4-morpholin-4-ylphenyl)methyl]piperazin-1-yl]-3-(trifluoromethyl)-[1,2,4]triazolo[4,3-b]pyridazine] | 6.6 µM
17 | Cc1cc(N2CCN(Cc3ccc(C#N)cc3)CC2)nn2c(C(F)(F)F)nnc12 [Example 12, 4-((4-(8-Methyl-3-(trifluoromethyl)-[1,2,4]triazolo[4,3-b]pyridazin-6-yl)piperazin-1-yl)methyl)benzonitrile] | 4.3 µM
18 | OC1(c2ccc(Cl)nc2)CCN(c2ccc3nnc(C(F)(F)F)n3n2)CC1 [Example 323, 4-(6-chloropyridin-3-yl)-1-[3-(trifluoromethyl)[1,2,4]triazolo[4,3-b]pyridazin-6-yl]piperidin-4-ol] | > 8.1 µM
19 | N#Cc1cccc(O[C@@H]2CCN(c3ccc4nnc(C(F)(F)F)n4n3)C2)c1 [Example 584] | 2.8 µM
20 | C[C@H]1CN(Cc2ccncc2)CCN1c1ccc2nnc(C(F)(F)F)n2n1 [Example 358, 6-[(2S)-2-methyl-4-(pyridin-4-ylmethyl)piperazin-1-yl]-3-(trifluoromethyl)[1,2,4]triazolo[4,3-b]pyridazine] | 6.7 µM
21 | N#Cc1ccc(CN2CCN(c3ccc4nnc(C(F)(F)F)n4n3)CC(F)(F)C2)cc1 [Example 843] | 0.93 µM
22 | FC(F)(F)c1nnc2ccc(N3CC[C@H](Oc4ccccn4)C3)nn12 [Example 589, 6-[(3S)-3-(pyridin-2-yloxy)pyrrolidin-1-yl]-3-(trifluoromethyl)[1,2,4]triazolo[4,3-b]pyridazine] | 4.8 µM
23 | FC(F)(F)c1nnc2ccc(N3CCC(Cc4ccccn4)CC3)nn12 [Example 537] | 3 µM
24 | CN(Cc1cccnc1)C1CCN(c2ccc3nnc(C(F)(F)F)n3n2)CC1 [Example 406, N-methyl-N-(pyridin-3-ylmethyl)-1-[3-(trifluoromethyl)[1,2,4]triazolo[4,3-b]pyridazin-6-yl]piperidin-4-amine] | 6.3 µM
25 | FC(F)(F)c1nnc2ccc(N3CCN(Cc4cc5ccccc5[nH]4)CC3)nn12 [Example 101, 6-[4-(1H-indol-2-ylmethyl)piperazin-1-yl]-3-(trifluoromethyl)-[1,2,4]triazolo[4,3-b]pyridazine] | 1.7 µM
26 | C[C@@H]1CN(c2ccc3nnc(C(F)(F)F)n3n2)[C@@H](C)CN1Cc1cccnc1 [Example 223, 6-[(2S,5R)-2,5-dimethyl-4-(pyridin-3-ylmethyl)piperazin-1-yl]-3-(trifluoromethyl)[1,2,4]triazolo[4,3-b]pyridazine] | 4.7 µM
27 | FC(F)(F)c1nnc2ccc(N3CCC(c4cccc(OCCN5CCOCC5)c4)CC3)nn12 [Example 676] | 0.56 µM
28 | CCOC(=O)/C=C/c1ccc(CN2CCN(c3ccc4nnc(C(F)(F)F)n4n3)CC2)cc1 [Example 163, ethyl (E)-3-[4-[[4-[3-(trifluoromethyl)-[1,2,4]triazolo[4,3-b]pyridazin-6-yl]piperazin-1-yl]methyl]phenyl]prop-2-enoate] | 3.6 µM

Results, then the molecule that gave them:

Row | DC50 | Structure (SMILES)
29 | 0.69 µM | COCCOc1cccc(C2CCN(c3ccc4nnc(C(F)(F)F)n4n3)CC2)c1 [Example 684]
30 | 0.74 µM | OCCOc1cccc(C2CCN(c3ccc4nnc(C(F)(F)F)n4n3)CC2)c1 [Example 737, 2-[3-[1-[3-(trifluoromethyl)[1,2,4]triazolo[4,3-b]pyridazin-6-yl]piperidin-4-yl]phenoxy]ethanol]
31 | 2.1 µM | COCCN(C)C(=O)c1cccc(OC2CCN(c3ccc4nnc(C(F)(F)F)n4n3)CC2)c1 [Example 699]
32 | 2.3 µM | CN1CCN(CCOc2ccc(OC3CCN(c4ccc5nnc(C(F)(F)F)n5n4)CC3)cc2)CC1 [Example 440]
33 | 3.2 µM | O=C(c1ccc(C2CCN(c3ccc4nnc(C(F)(F)F)n4n3)CC2)cc1)N1CC[C@H](O)C1 [Example 739]
34 | 4.5 µM | CN1CCC(Oc2cccc(C3CCN(c4ccc5nnc(C(F)(F)F)n5n4)CC3)c2)CC1 [Example 677]
35 | 2.2 µM | COc1ccc(OC2CCN(c3ccc4nnc(C(F)(F)F)n4n3)CC2)cc1 [Example 528]
36 | 1.7 µM | CN(C)C(=O)c1cccc(C2CCN(c3ccc4nnc(C(F)(F)F)n4n3)CC2)c1 [Example 647]
37 | 3.6 µM | COCCN(C)C(=O)c1ccc(OC2CCN(c3ccc4nnc(C(F)(F)F)n4n3)CC2)cc1 [Example 425]
38 | 2.1 µM | CN(CCN1CCCC1=O)C(=O)c1ccc(C2CCN(c3ccc4nnc(C(F)(F)F)n4n3)CC2)cc1 [Example 753, N-methyl-N-[2-(2-oxopyrrolidin-1-yl)ethyl]-4-[1-[3-(trifluoromethyl)[1,2,4]triazolo[4,3-b]pyridazin-6-yl]piperidin-4-yl]benzamide]
39 | 2.4 µM | COc1ccc(O[C@@H]2CCN(c3ccc4nnc(C(F)(F)F)n4n3)C2)cc1 [Example 582]
40 | 5 µM | COc1ccc(C2(O)CCN(c3ccc4nnc(C(F)(F)F)n4n3)CC2)cc1 [Example 311]
41 | 3.3 µM | Fc1ccc(O[C@@H]2CCN(c3ccc4nnc(C(F)(F)F)n4n3)C2)cc1 [Example 581]
42 | 2.7 µM | COCCNC(=O)c1ccc(OC2CCN(c3ccc4nnc(C(F)(F)F)n4n3)CC2)cc1 [Example 416]
